From ChEMBL document CHEMBL5046279, “Discovery of a Partial Glucokinase Activator Clinical Candidate: Diethyl ((3-(3-((5-(Azetidine-1-carbonyl)pyrazin-2-yl)oxy)-5-isopropoxybenzamido)-1H-pyrazol-1-yl)methyl)phosphonate (BMS-820132)” (J Med Chem, 2022)
≈ marks a conversion by molar mass, not a printed value.

Columns and labels:
[1] = test system: Mus musculus; test: Anti-hyperglycemic activity in C57BL/6J DIO mouse assessed as reduction in plasma glucose AUC at 1 umol/kg incubated for 120 mins by OGTT; assay type: functional; design: scale not given: the % may be the effect or the level left; conditions: dose 1 µM/Kg, 2 h, at 1 µmol/kg
[2] = Cmax in Sprague-Dawley rat at 5 mg/kg, po measured upto 24 hrs by LC-MS/MS analysis; assay type: ADME, organism-based; design: route oral, dose 5 mg/kg, time <=24; conditions: in vivo
[3] = test system: Mus musculus; test: Anti-hyperglycemic activity in C57BL/6J DIO mouse assessed as reduction in plasma glucose level at 30 umol/kg, po qd measured on day 14 by OGTT; assay type: functional; design: scale not given: the % may be the effect or the level left; conditions: dose 30 µM/Kg; time 24 hrs; at 30 µmol/kg
[4] = test system: Salmonella typhimurium; test: Mutagenicity in Salmonella typhimurium TA1537 at 5000 ug/plate in absence of S9 fraction by Ames test; assay type: toxicity, organism-based; conditions: salmonella enterica subsp. enterica serovar typhimurium; dose 5000 µg
[5] = test system: Mus musculus; test: Anti-hyperglycemic activity in C57BL/6J DIO mouse assessed as reduction in plasma glucose level at 3 umol/kg measured at 1 hr post dose on day 1 by OGTT; assay type: functional; design: scale not given: the % may be the effect or the level left; conditions: dose 3 µM/Kg, at 3 µmol/kg
[6] = test system: Salmonella typhimurium; test: Mutagenicity in Salmonella typhimurium TA1537 at 5000 ug/plate in presence of S9 fraction by Ames test; assay type: toxicity, organism-based; conditions: salmonella enterica subsp. enterica serovar typhimurium, dose 5000 µg
[7] = test system: Mus musculus; test: Anti-hyperglycemic activity in C57BL/6J DIO mouse assessed as reduction in plasma glucose AUC at 3 umol/kg, po measured after 120 mins by OGTT; assay type: functional; design: scale not given: the % may be the effect or the level left; conditions: dose 3 µM/Kg, 2 h, at 3 µmol/kg
[8] = biological target: ATP-dependent translocase ABCB1 (Homo sapiens, UniProt P08183); test: Inhibition of P-gp transporter (unknown origin)
[9] = test system: sodium channel; test: Inhibition of sodium channel (unknown origin) at 1 Hz at 10 uM by patch clamp assay relative to control; assay type: toxicity; conditions: human
[10] = Aqueous solubility of the compound at pH 6.5 using crystaline form of sample; assay type: physicochemical
[11] = AUC (0 to 24 hrs) in cynomolgus monkey at 3 mg/kg, po measured upto 24 hrs; assay type: ADME, organism-based, Macaca fascicularis; design: route oral, dose 3 mg/kg, time <=24; conditions: in vivo
[12] = test system: L-type calcium channel; test: Inhibition of L-type calcium channel (unknown origin) at 10 uM by patch clamp assay relative to control; assay type: toxicity; conditions: human
[13] = AUC (0 to 24 hrs) in CD1 mouse at 2.5 mg/kg, iv measured upto 24 hrs by LC-MS/MS analysis; assay type: ADME, organism-based; design: route intravenous, dose 2.5 mg/kg, time <=24; conditions: in vivo
[14] = test system: Mus musculus; test: Anti-hyperglycemic activity in C57BL/6J DIO mouse assessed as reduction in plasma glucose level at 30 umol/kg measured at 1 hr post dose on day 1 by OGTT; assay type: functional; design: scale not given: the % may be the effect or the level left; conditions: dose 30 µM/Kg, at 30 µmol/kg
[15] = Cmax in cynomolgus monkey at 3 mg/kg, po measured upto 24 hrs; assay type: ADME, organism-based, Macaca fascicularis; design: route oral, dose 3 mg/kg, time <=24; conditions: in vivo
[16] = Half life in Beagle dog at 3 mg/kg, iv measured upto 24 hrs; assay type: ADME, organism-based, Canis lupus familiaris; conditions: in vivo
[17] = AUC (0 to 24 hrs) in cynomolgus monkey at 3 mg/kg, iv measured upto 24 hrs; assay type: ADME, organism-based, Macaca fascicularis; design: route intravenous, dose 3 mg/kg, time <=24; conditions: in vivo
[18] = Aqueous solubility of the compound at pH 6.5 using amorphous form of sample; assay type: physicochemical; conditions: aqueous solution
[19] = test system: CHO; test: Mutagenicity in CHO cells; assay type: toxicity, cell-based, Cricetulus griseus; conditions: chinese hamster
[20] = test system: Escherichia coli; test: Mutagenicity in Escherichia coli WP2 uvrA at 5000 ug/plate in presence of S9 fraction by Ames test; assay type: toxicity, organism-based; conditions: dose 5000 µg
[21] = AUC (0 to 24 hrs) in Beagle dog at 3 mg/kg, po measured upto 24 hrs; assay type: ADME, organism-based, Canis lupus familiaris; design: route oral, dose 3 mg/kg, time <=24; conditions: in vivo
[22] = test system: Salmonella typhimurium; test: Mutagenicity in Salmonella typhimurium TA100 at 5000 ug/plate in presence of S9 fraction by Ames test; assay type: toxicity, organism-based; conditions: salmonella enterica subsp. enterica serovar typhimurium, dose 5000 µg
[23] = Cmax in Beagle dog at 3 mg/kg, po measured upto 24 hrs; assay type: ADME, organism-based, Canis lupus familiaris; design: route oral, dose 3 mg/kg, time <=24; conditions: in vivo
[24] = Oral bioavailability in cynomolgus monkey at 3 mg/kg measured upto 24 hrs; assay type: ADME, organism-based, Macaca fascicularis; conditions: in vivo
[25] = test system: Salmonella typhimurium; test: Mutagenicity in Salmonella typhimurium TA98 at 5000 ug/plate in presence of S9 fraction by Ames test; assay type: toxicity, organism-based; conditions: salmonella enterica subsp. enterica serovar typhimurium, dose 5000 µg
[26] = Systemic plasma clearance in Sprague-Dawley rat at 2.5 mg/kg, iv measured upto 24 hrs by LC-MS/MS analysis; assay type: ADME, organism-based
[27] = test system: Mus musculus; test: Anti-hyperglycemic activity in C57BL/6J DIO mouse assessed as reduction in plasma glucose level at 30 umol/kg measured after 14 days; assay type: functional; design: scale not given: the % may be the effect or the level left; conditions: dose 30 µM/Kg; time 14 day; at 30 µmol/kg
[28] = Oral bioavailability in Beagle dog at 3 mg/kg measured upto 24 hrs; assay type: ADME, organism-based, Canis lupus familiaris; conditions: in vivo
[29] = Oral bioavailability in CD1 mouse at 5 mg/kg measured upto 24 hrs by LC-MS/MS analysis; assay type: ADME, organism-based; conditions: in vivo
[30] = Protein binding in human serum; assay type: ADME, cell-free; conditions: read-out: PB (converted)
[31] = Protein binding in mouse serum; assay type: ADME, cell-free; conditions: pooled result: one value given for 5 cell lines, strains, targets or settings, read-out: PB (converted)
[32] = Systemic plasma clearance in Beagle dog at 3 mg/kg, iv measured upto 24 hrs; assay type: ADME, organism-based, Canis lupus familiaris
[33] = Permeability of compound at pH >= 5.5 by PAMPA assay; assay type: ADME; conditions: read-out: permeability
[34] = Phototoxicity in BALB/c mouse 3T3 fibroblasts; assay type: toxicity, cell-based
[35] = test system: Salmonella typhimurium; test: Mutagenicity in Salmonella typhimurium TA98 at 5000 ug/plate in absence of S9 fraction by Ames test; assay type: toxicity, organism-based; conditions: salmonella enterica subsp. enterica serovar typhimurium; dose 5000 µg
[36] = test system: Mus musculus; test: Anti-hyperglycemic activity in C57BL/6J DIO mouse assessed as reduction in plasma glucose AUC at 3 umol/kg incubated for 120 mins by OGTT; assay type: functional; design: scale not given: the % may be the effect or the level left; conditions: dose 3 µM/Kg, 2 h, at 3 µmol/kg
[37] = AUC (0 to 24 hrs) in CD1 mouse at 5 mg/kg, po measured upto 24 hrs by LC-MS/MS analysis; assay type: ADME, organism-based; design: route oral, dose 5 mg/kg, time <=24; conditions: in vivo
[38] = Tmax in CD1 mouse at 5 mg/kg, po measured upto 24 hrs by LC-MS/MS analysis; assay type: ADME, organism-based; conditions: in vivo
[39] = AUC (0 to 24 hrs) in Sprague-Dawley rat at 2.5 mg/kg, iv measured upto 24 hrs by LC-MS/MS analysis; assay type: ADME, organism-based; design: route intravenous, dose 2.5 mg/kg, time <=24; conditions: in vivo
[40] = Volume of distribution at steady state in Beagle dog at 3 mg/kg, iv measured upto 24 hrs; assay type: ADME, organism-based, Canis lupus familiaris; conditions: in vivo, read-out: Vdss
[41] = Systemic plasma clearance in CD1 mouse at 2.5 mg/kg, iv measured upto 24 hrs by LC-MS/MS analysis; assay type: ADME, organism-based
[42] = test system: Salmonella typhimurium; test: Mutagenicity in Salmonella typhimurium TA1535 at 5000 ug/plate in absence of S9 fraction by Ames test; assay type: toxicity, organism-based; conditions: salmonella enterica subsp. enterica serovar typhimurium; dose 5000 µg
[43] = biological target: Voltage-gated inwardly rectifying potassium channel KCNH2 (Homo sapiens, UniProt Q12809); test: Inhibition of hERG by patch clamp method; assay type: toxicity
[44] = Tmax in Sprague-Dawley rat at 5 mg/kg, po measured upto 24 hrs by LC-MS/MS analysis; assay type: ADME, organism-based; conditions: in vivo
[45] = Volume of distribution at steady state in Sprague-Dawley rat at 2.5 mg/kg, iv measured upto 24 hrs by LC-MS/MS analysis; assay type: ADME, organism-based; conditions: in vivo, read-out: Vdss
[46] = Tmax in cynomolgus monkey at 3 mg/kg, po measured upto 24 hrs; assay type: ADME, organism-based, Macaca fascicularis; conditions: in vivo
[47] = test system: Escherichia coli; test: Mutagenicity in Escherichia coli WP2 uvrA at 5000 ug/plate in absence of S9 fraction by Ames test; assay type: toxicity, organism-based

Chain of Voltage-gated inwardly rectifying potassium channel KCNH2 (Q12809 whole entry): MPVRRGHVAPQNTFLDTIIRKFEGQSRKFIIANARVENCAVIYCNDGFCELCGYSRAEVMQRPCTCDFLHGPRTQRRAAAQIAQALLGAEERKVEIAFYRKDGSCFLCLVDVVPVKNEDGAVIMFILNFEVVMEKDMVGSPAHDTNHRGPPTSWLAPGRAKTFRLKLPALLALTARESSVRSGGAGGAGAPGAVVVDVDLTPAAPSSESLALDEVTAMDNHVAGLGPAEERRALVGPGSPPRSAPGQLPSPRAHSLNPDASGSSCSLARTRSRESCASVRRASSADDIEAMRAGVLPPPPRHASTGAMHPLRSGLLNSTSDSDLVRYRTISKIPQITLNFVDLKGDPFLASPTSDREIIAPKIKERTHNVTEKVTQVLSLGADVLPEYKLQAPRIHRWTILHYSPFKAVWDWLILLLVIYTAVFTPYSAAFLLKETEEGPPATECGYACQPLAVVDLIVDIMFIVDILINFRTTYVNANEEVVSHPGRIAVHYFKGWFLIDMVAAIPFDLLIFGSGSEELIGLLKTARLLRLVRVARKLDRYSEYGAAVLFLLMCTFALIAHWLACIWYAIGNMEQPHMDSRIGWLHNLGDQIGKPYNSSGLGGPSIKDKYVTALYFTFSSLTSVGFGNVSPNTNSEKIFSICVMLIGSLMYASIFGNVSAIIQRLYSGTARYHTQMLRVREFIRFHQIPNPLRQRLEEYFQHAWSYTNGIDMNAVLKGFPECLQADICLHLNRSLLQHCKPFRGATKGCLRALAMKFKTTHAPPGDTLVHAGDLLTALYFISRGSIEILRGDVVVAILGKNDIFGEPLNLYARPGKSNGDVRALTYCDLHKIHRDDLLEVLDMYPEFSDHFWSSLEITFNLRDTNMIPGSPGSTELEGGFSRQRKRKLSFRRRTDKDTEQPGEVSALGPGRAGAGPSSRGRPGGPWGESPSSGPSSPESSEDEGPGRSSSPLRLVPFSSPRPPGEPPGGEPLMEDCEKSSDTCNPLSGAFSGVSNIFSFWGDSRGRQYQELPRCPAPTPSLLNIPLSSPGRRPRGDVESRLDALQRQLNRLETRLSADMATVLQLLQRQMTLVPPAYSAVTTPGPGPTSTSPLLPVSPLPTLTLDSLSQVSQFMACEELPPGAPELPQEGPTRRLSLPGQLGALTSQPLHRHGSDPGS
Chain of ATP-dependent translocase ABCB1 (P08183 whole entry): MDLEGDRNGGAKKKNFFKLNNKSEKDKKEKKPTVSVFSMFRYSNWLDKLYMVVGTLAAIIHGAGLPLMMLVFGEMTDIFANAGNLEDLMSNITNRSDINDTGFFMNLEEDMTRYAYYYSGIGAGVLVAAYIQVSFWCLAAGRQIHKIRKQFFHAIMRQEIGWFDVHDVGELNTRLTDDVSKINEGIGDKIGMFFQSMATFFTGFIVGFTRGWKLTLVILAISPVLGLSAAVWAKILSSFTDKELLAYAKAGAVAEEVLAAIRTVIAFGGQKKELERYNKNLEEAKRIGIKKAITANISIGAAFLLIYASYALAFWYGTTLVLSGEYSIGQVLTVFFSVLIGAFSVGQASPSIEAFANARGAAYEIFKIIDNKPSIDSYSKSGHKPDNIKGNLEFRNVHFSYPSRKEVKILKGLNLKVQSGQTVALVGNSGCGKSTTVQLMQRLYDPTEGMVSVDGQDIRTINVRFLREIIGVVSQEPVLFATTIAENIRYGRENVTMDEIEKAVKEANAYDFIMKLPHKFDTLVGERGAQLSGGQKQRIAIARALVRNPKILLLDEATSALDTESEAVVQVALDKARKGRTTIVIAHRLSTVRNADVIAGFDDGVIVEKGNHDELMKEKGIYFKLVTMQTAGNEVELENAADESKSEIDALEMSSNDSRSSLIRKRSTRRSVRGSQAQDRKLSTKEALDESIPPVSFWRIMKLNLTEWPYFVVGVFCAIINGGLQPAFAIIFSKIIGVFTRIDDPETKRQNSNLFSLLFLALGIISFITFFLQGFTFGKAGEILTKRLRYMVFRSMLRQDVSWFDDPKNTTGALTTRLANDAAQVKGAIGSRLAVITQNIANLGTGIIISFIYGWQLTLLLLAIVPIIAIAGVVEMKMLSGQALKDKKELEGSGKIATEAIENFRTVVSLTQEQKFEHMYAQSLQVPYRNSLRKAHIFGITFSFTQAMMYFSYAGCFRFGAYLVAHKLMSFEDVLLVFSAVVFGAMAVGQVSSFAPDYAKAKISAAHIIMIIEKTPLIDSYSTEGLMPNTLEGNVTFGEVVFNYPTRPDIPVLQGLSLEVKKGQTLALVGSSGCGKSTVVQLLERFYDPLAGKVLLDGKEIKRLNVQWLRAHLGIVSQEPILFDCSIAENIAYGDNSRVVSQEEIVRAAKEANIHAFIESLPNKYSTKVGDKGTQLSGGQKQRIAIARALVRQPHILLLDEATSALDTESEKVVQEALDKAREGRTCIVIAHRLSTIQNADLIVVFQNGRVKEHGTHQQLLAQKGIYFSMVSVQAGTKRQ

For `CCOP(=O)(Cn1ccc(NC(=O)c2cc(Oc3cnc(C(=O)N4CCC4)cn3)cc(OC(C)C)c2)n1)OCC`, the Activity [1] was -28%, the Cmax [2] was 13 µM and the Activity [3] was -46%. The Activity [4] was “Non-Toxic”, the Activity [5] was -32% and the Activity [6] was “Non-Toxic”. It also gave an Activity [7] of -31%, an IC50 [8] of 55 µM and an inhibition at 10 µM [9] of 9%. It also gave a solubility [10] of 10 µg/mL (≈ 17.5 µM), an AUC(0-t) [11] of 0.57 µM·h and an inhibition at 10 µM [12] of 13%. For the same molecule, the AUC(0-t) [13] was 24.9 µM·h, the Activity [14] was -46% and the Cmax [15] was 0.38 µM. The half-life [16] was 1.8 h, the AUC(0-t) [17] was 3.8 µM·h and the solubility [18] was 10 µg/mL (≈ 17.5 µM). For the same molecule, the Activity [19] was “Toxic”, the Activity [20] was “Non-Toxic” and the AUC(0-t) [21] was 8 µM·h. The Activity [22] was “Non-Toxic”, the Cmax [23] was 4.9 µM and the bioavailability [24] was 15%. For the same molecule, the Activity [25] was “Non-Toxic”, the clearance [26] was 4.4 mL/min/kg and the Activity [27] was -63%. It also gave a bioavailability [28] of 66%, a bioavailability [29] of 100% and a fraction unbound [30] of 0.054. For the same molecule, the fraction unbound [31] was 0.168, the clearance [32] was 7.2 mL/min/kg and the Papp [33] was over 40 ×10⁻⁶ cm/s. For the same molecule, the Activity [34] was “Toxic”, the Activity [35] was “Non-Toxic” and the Activity [36] was -50%. The AUC(0-t) [37] was 49.7 µM·h, the Tmax [38] was 0.5 h and the AUC(0-t) [39] was 16.6 µM·h. For the same molecule, the Vd [40] was 0.5 L/kg, the clearance [41] was 2.9 mL/min/kg and the Activity [42] was “Non-Toxic”. It also gave an IC50 [43] of over 80 µM, a Tmax [44] of 0.9 h and a Vd [45] of 0.3 L/kg. The Tmax [46] was 1.3 h and the Activity [47] was “Non-Toxic”.
